This note sets out measurements from patent US11242337B2, “Compounds useful for treating gastrointestinal tract disorders” (Ardelyx, Inc., priority 2017, dated 2022).

The target of this assay is T1, NHE3 (Homo sapiens, UniProt P48764).
T1 construct: expressed in transfected cells
T1 sequence (P48764 26-834): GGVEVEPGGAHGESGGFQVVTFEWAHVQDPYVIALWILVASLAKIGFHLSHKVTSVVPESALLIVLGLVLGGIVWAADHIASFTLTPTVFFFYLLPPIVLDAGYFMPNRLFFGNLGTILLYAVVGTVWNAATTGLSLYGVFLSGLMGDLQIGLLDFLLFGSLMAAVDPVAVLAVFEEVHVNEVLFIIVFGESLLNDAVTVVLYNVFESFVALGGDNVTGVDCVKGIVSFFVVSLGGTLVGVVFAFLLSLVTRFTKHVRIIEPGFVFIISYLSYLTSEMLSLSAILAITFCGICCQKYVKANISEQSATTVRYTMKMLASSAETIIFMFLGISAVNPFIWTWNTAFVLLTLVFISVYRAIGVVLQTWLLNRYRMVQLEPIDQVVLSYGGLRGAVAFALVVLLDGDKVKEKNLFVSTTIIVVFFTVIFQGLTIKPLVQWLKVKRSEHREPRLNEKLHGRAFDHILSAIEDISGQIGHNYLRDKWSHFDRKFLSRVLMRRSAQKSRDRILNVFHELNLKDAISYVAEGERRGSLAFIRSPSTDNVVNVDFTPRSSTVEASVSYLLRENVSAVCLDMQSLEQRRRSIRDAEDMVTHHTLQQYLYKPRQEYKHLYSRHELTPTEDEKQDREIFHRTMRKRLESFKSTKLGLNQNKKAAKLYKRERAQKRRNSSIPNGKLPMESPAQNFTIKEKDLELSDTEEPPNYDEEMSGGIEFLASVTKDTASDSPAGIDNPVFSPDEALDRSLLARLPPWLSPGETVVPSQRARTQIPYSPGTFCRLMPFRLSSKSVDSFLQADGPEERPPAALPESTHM
T1 sequence (Q99653 2-195 partner limits assumed): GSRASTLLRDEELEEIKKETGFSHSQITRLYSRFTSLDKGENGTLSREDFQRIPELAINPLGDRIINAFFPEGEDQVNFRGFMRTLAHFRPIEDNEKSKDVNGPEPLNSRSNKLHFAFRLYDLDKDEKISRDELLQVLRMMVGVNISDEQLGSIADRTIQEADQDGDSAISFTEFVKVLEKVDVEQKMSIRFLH
The assay can be described thus: persistent inhibition of NHE3 in the cell-based assay of example 181 (4-chloro vs 4-cyano pairs). Particulars: for IC50: cell-based assay of example 181, after washout, read-out: pIC50 (persistent) (converted); for Percent Inhibition: cell-based assay of example 181, persistent. As to the method: The following pairs of compounds differ only in the 4-position substituent (either chloro (X—Cl) or cyano (X—CN)):
The ability of compounds to inhibit human and rat NHE-3-mediated Na^+ dependent H^+ antiport after application and washout was measured using a modification of the pH sensitive dye method described above. PS120 fibroblasts stably expressing human NHE3 and NHERF2 were obtained from Mark Donowitz (Baltimore, Md.). Opossum kidney (OK) cells were obtained from the ATCC and propagated per their instructions. The rat NHE-3 gene was introduced into OK cells via electroporation, and cells were seeded into 96 well plates and grown overnight. Medium was aspirated from the wells, cells were washed once with NaCl-HEPES buffer (100 mM NaCl, 50 mM HEPES, 10 mM glucose, 5 mM KCl, 2 mM CaCl2, 1 mM MgCl2, pH 7.4), then overlayed with NaCl-HEPES buffer containing 0-30 μM test compound. After a 60 min incubation at room temperature, the test drug containing buffer was aspirated from the cells. Following aspiration, cells were washed once with NaCl-HEPES buffer without drug, then incubated for 30 min at 37° C. with NH4Cl-HEPES buffer (20 mM NH4Cl, 80 mM NaCl, 50 mM HEPES, 5 mM KCl, 2 mM CaCl2, 1 mM MgCl2, pH 7.4) containing 5 μM BCECF-AM. Cells were washed once with Ammonium free, Na^+-free HEPES (100 mM choline, 50 mM HEPES, 10 mM glucose, 5 mM KCl, 2 mM CaCl2, 1 mM MgCl2, pH 7.4) and incubated in the same buffer for 10 minutes at room temperature to lower intracellular pH. NHE-3-mediated recovery of neutral intracellular pH was initiated (10 min after compound washout) by addition of Na-HEPES buffer. […] Changes in intracellular pH were monitored using a FLIPR Tetra® (Molecular Devices, Sunnyvale, Calif.) by excitation at λex 439 to 505 nm, and measuring BCECF fluorescence at λem 538 nm. The initial rate of the fluorescence ratio change was used as a measure of NHE-mediated Na^+/H^+ activity, and reported as the change in fluorescence ratio per minute.

The structures appear in SMILES notation.

As to `C[C@@H]1CN([C@H]2Cc3c(Cl)cc(Cl)cc3[C@@H]2Oc2ccc(S(=O)(=O)N[C@H]3CCN(C(=O)CNC(=O)CNC(=O)NCCCCNC(=O)NCC(=O)NCC(=O)N4CC[C@H](NS(=O)(=O)c5ccc(O[C@H]6c7cc(Cl)cc(Cl)c7C[C@@H]6N6CCN[C@H](C)C6)cc5)C4)C3)cc2)CCN1` [B-Cl, N-{2-[(3S)-3-(4-{[(1S,2S)-4,6-dichloro-2-[(3R)-3-methylpiperazin-1-yl]-2,3-dihydro-1H-inden-1-yl]oxy}benzenesulfonamido)pyrrolidin-1-yl]-2-oxoethyl}-2-({[4-({[({2-[(3S)-3-(4-{[(1S,2S)-4,6-dichloro-2-[(3R)-3-methylpiperazin-1-yl]-2,3-dihydro-1H-inden-1H-yl]oxy}benzenesulfonamido)pyrrolidin-1-yl]-2-oxoethyl}carbamoyl)methyl]carbamoyl}amino)butyl]carbamoyl}amino)acetamide], the IC50 was 0.631 nM and the “Percent Inhibition” value is 102%.

Regarding `N#Cc1cc(Cl)cc2c1C[C@H](N1CCNCC1)[C@H]2Oc1ccc(S(=O)(=O)N[C@H]2CCN(CCOCCNC(=O)NCCCCNC(=O)NCCOCCN3CC[C@H](NS(=O)(=O)c4ccc(O[C@H]5c6cc(Cl)cc(C#N)c6C[C@@H]5N5CCNCC5)c(F)c4)C3)C2)cc1F` [C-CN, 3-(2-{2-[(3 S)-3-(4-{[(1S,2S)-6-chloro-4-cyano-2-(piperazin-1-yl)-2,3-dihydro-1H-inden-1-yl]oxy}-3-fluorobenzenesulfonamido)pyrrolidin-1-yl]ethoxy}ethyl)-1-(4-{[(2-{2-[(3S)-3-(4-{[(1S,2S)-6-chloro-4-cyano-2-(piperazin-1-yl)-2,3-dihydro-1H-inden-1-yl]oxy}-3-fluorobenzenesulfonamido)pyrrolidin-1-yl]ethoxy}ethyl)carbamoyl]amino}butyl)urea], the IC50 was 0.501 nM and the “Percent Inhibition” value is recorded as 106%.

With `O=C(NCCCCNC(=O)NCCOCCN1CC[C@H](NS(=O)(=O)c2ccc(O[C@H]3c4cc(Cl)cc(Cl)c4C[C@@H]3N3CCNCC3)c(F)c2)C1)NCCOCCN1CC[C@H](NS(=O)(=O)c2ccc(O[C@H]3c4cc(Cl)cc(Cl)c4C[C@@H]3N3CCNCC3)c(F)c2)C1` [C-Cl, 3-(2-{2-[(3S)-3-(4-{[(1S,2S)-4,6-dichloro-2-(piperazin-1-yl)-2,3-dihydro-1H-inden-1-yl]oxy}-3-fluorobenzenesulfonamido)pyrrolidin-1-yl]ethoxy}ethyl)-1-(4-{[(2-{2-[(3S)-3-(4-{[(1S,2S)-4,6-dichloro-2-(piperazin-1-yl)-2,3-dihydro-1H-inden-1-yl]oxy}-3-fluorobenzenesulfonamido)pyrrolidin-1-yl]ethoxy}ethyl)carbamoyl]amino}butyl)urea], the IC50 is 3.98 nM and the “Percent Inhibition” value came out at 90%.

Regarding `N#Cc1cc(Cl)cc2c1C[C@H](N1CCNCC1)[C@H]2Oc1ccc(S(=O)(=O)NCCOCCOCCNC(=O)NCCCCNC(=O)NCCOCCOCCNS(=O)(=O)c2ccc(O[C@H]3c4cc(Cl)cc(C#N)c4C[C@@H]3N3CCNCC3)c(F)c2)cc1F` [D-CN, 3-(2-{2-[2-(4-{[(1S,2S)-6-chloro-4-cyano-2-(piperazin-1-yl)-2,3-dihydro-1H-inden-1-yl]oxy}-3-fluorobenzenesulfonamido)ethoxy]ethoxy}ethyl)-1-(4-{[(2-{2-[2-(4-{[(1S,2S)-6-chloro-4-cyano-2-(piperazin-1-yl)-2,3-dihydro-1H-inden-1-yl]oxy}-3-fluorobenzenesulfonamido)ethoxy]ethoxy}ethyl)carbamoyl]amino}butyl)urea], the IC50 was 0.501 nM and the “Percent Inhibition” value was found to be 74%.
